Read-outs that look alike come from different tables or passages of the source.
Key:
Assay type in all cases: in vivo
[1] = system: Alopecurus myosuroides (ALOMY); assay: Pre-emergence herbicidal action against ALOMY; conditions: 320 g/ha; scored visually after about 3 weeks; 100% = plants have died
Method in brief: (§1)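 Read-out is visual percent damage relative to untreated pots, with 100% meaning dead plants and 0% meaning no difference, assessed roughly three weeks after treatment. Compounds were applied pre-emergence to the covering soil at up to 320 g/ha.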

[2] = system: Alopecurus myosuroides (ALOMY); assay: Post-emergence herbicidal action against ALOMY; conditions: 320 g/ha, visual rating about 3 weeks after treatment vs untreated controls (100% = plants have died, 0% = like control plants)
Method in brief: (§2)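 Values are percent visual activity (0% like control, 100% plants dead) after about 3 weeks in the greenhouse. Treatment: post-emergence spray at one-leaf stage, 600 l/ha spray volume, 0.5% additive, doses 320 g/ha or lower.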

[3] = system: Pharbitis purpurea (PHBPU); assay: Post-emergence herbicidal action against PHBPU; conditions: dosage 320 g/ha
Method in brief: as §2

[4] = system: Lolium rigidum (LOLRI); assay: Post-emergence herbicidal action against LOLRI; conditions: dosage 320 g/ha
Method in brief: as §2

[5] = system: Oryza sativa (ORYSA); conditions: crop plant compatibility
Method in brief: (§3)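 Effects were read visually as % versus untreated controls (0% = no effect, 100% = death) about 3 weeks post-treatment. Application was a post-emergence spray at the one-leaf stage of WP/EC formulations with 0.5% additive at 600 l/ha. Different dosages are denoted a, b and c.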

[6] = system: Zea mays (ZEAMX); conditions: crop plant compatibility, 80 g/ha, effect vs untreated controls
Method in brief: as §3

[7] = system: Polygonum convolvulus (POLCO); assay: Pre-emergence herbicidal action against POLCO; conditions: dosage 320 g/ha
Method in brief: as §1

[8] = system: Viola tricolor (VIOTR); assay: Pre-emergence herbicidal action against VIOTR
Method in brief: as §1

[9] = system: Brassica napus (BRSNW); conditions: 80 g/ha, crop plant compatibility, in comparison to untreated controls
Method in brief: (§4)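 Scoring: visual, % of untreated control, about 3 weeks after a pre-emergence application to the soil surface. Application used WP or EC formulations diluted in water with 0.5% additive at 600 l/ha; dosage levels are marked by suffixes a, b and c.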

[10] = system: Oryza sativa (ORYSA); conditions: pre-emergence, 80 g/ha, crop plant compatibility, in comparison to untreated controls
Method in brief: as §4

[11] = system: Glycine max (GLXMA); conditions: pre-emergence, 80 g/ha, crop plant compatibility, in comparison to untreated controls
Method in brief: as §4

[12] = system: Zea mays (ZEAMX); conditions: pre-emergence, 80 g/ha, crop plant compatibility, in comparison to untreated controls
Method in brief: as §4

[13] = system: Avena fatua (AVEFA); assay: Pre-emergence herbicidal action against AVEFA; conditions: 320 g/ha, visual scoring after about 3 weeks vs untreated controls
Method in brief: as §1

[14] = system: Avena fatua (AVEFA); assay: Post-emergence herbicidal action against AVEFA; conditions: 320 g/ha, visual rating about 3 weeks after treatment
Method in brief: as §2

[15] = system: Echinochloa crus-galli (ECHCG); assay: Post-emergence herbicidal action against ECHCG
Method in brief: as §2

[16] = system: Lolium rigidum (LOLRI); assay: Pre-emergence herbicidal action against LOLRI; conditions: dosage 320 g/ha
Method in brief: as §1

[17] = system: Verconica persica (VERPE); assay: Pre-emergence herbicidal action against VERPE; conditions: dosage 320 g/ha
Method in brief: as §1

[18] = system: Matricaria inodora (MATIN); assay: Pre-emergence herbicidal action against MATIN
Method in brief: as §1

[19] = system: Amaranthus retroflexus (AMARE); assay: Post-emergence herbicidal action against AMARE; conditions: 320 g/ha, visual rating about 3 weeks after treatment
Method in brief: as §2

[20] = system: Setaria viridis (SETVI); assay: Post-emergence herbicidal action against SETVI; conditions: dosage 320 g/ha
Method in brief: as §2

[21] = system: Triticum aestivum (TRZAS); conditions: pre-emergence, 80 g/ha, crop plant compatibility, in comparison to untreated controls
Method in brief: as §4

[22] = system: Polygonum convolvulus (POLCO); assay: Post-emergence herbicidal action against POLCO; conditions: dosage 320 g/ha
Method in brief: as §2

[23] = system: Echinochloa crus-galli (ECHCG); assay: Pre-emergence herbicidal action against ECHCG; conditions: dosage 320 g/ha
Method in brief: as §1

[24] = system: Setaria viridis (SETVI); assay: Pre-emergence herbicidal action against SETVI; conditions: dosage 320 g/ha
Method in brief: as §1

[25] = system: Amaranthus retroflexus (AMARE); assay: Pre-emergence herbicidal action against AMARE; conditions: 320 g/ha, visual scoring after about 3 weeks vs untreated controls
Method in brief: as §1

[26] = system: Digitaria sanguinalis (DIGSA); assay: Pre-emergence herbicidal action against DIGSA; conditions: dosage 320 g/ha
Method in brief: as §1

[27] = system: Viola tricolor (VIOTR); assay: Post-emergence herbicidal action against VIOTR; conditions: 80 g/ha
Method in brief: as §2

[28] = 80 g/ha, effect in comparison to untreated controls

| Structure (SMILES) | Pre-emergence action against ALOMY [1] | Post-emergence action against ORYSA in % [5, 28] | Pre-emergence action against POLCO in % [7] | Pre-emergence action against VIOTR in % ([8]; 320 g/ha, Viola tricolor) | Pre-emergence action against BRSNW in % [9] | Pre-emergence action against ORYSA in % [10] | Pre-emergence action against GLXMA in % [11] | Pre-emergence action against ZEAMX in % [12] | Pre-emergence action against AVEFA in % [13] | Post-emergence action against AVEFA in % [14] | Post-emergence action against ECHCG in % ([15]; dosage 320 g/ha) | Pre-emergence action against LOLRI in % [16] | Pre-emergence action against VERPE in % [17] | Pre-emergence action against SETVI in % [24] | Pre-emergence action against AMARE in % [25] | also measured |
| --- | --- | --- | --- | --- | --- | --- | --- | --- | --- | --- | --- | --- | --- | --- | --- | --- |
| CCOC(=O)C(C)Oc1nn(-c2ccccn2)c(-c2ccc(F)nc2)c1Br (racemic) [Example I-58] | 90% | 0% | 90% | 80% | 0% | 0% | 0% | 20% | 80% | 90% | 80% | 80% | – | – | – | Post-emergence action against ALOMY in % [2]: 90%; Post-emergence action against PHBPU in % [3]: 80%; Post-emergence action against LOLRI in % [4]: 80%; Post-emergence action against ZEAMX in % [6]: 20% |
| COC(=O)CNC(=O)CSc1nn(-c2ccccn2)c(-c2cncnc2)c1Br [Example I-65] | 80% | 0% | 90% | 100% | 20% | – | 20% | – | – | 80% | 80% | 90% | 80% | 90% | 90% | Post-emergence action against ORYSA in % ([5]; 320 g/ha, effect in comparison to untreated controls): 0%; Pre-emergence action against MATIN in % ([18]; dosage 80 g/ha): 80%; Pre-emergence action against MATIN in % ([18]; dosage 320 g/ha): 90%; Post-emergence action against AMARE in % [19]: 80%; Post-emergence action against SETVI in % [20]: 80%; Pre-emergence action against TRZAS in % [21]: 20%; Post-emergence action against POLCO in % [22]: 80%; Pre-emergence action against ECHCG in % [23]: 90%; Post-emergence action against ECHCG in % ([15]; dosage 80 g/ha): 80% |
| COC(=O)[C@@H](C)Oc1nn(-c2cccnc2F)c(-c2ccc(F)nc2)c1Br [II-36] | 100% | 0% | – | 100% | 0% | 0% | 0% | 20% | 80% | – | – | 80% | 80% | 80% | 100% | Post-emergence action against ORYSA in % ([5]; 20 g/ha, effect vs untreated controls): 0%; Pre-emergence action against DIGSA in % [26]: 100%; Pre-emergence action against VIOTR in % ([8]; dosage 80 g/ha): 80%; Post-emergence action against VIOTR in % [27]: 80% |
